Several values for one entry are separate records, joined by “and”; a condition that tells them apart may be missing. Equal values may be shown once. Values belong to the compound of their own block, whether it stands above or below them. Starred links: 1 amine or outer side, 2 acyl side, 3 side chain; linkers in the order of their positions; H or OH if unused. Positions of bridges follow the written chain, without caps; N, C: chain ends. Non-standard residues stand in square brackets, D forms with d. Residues, ends and D or L forms follow the SMILES beside them. Tyr(3-I) = N[C@@H](Cc1ccc(O)c(I)c1)C(=O)O; X1 = O=C(CC1(S[*:2])CCCCC1)[*:1]; Orn = NCCC[C@H](N)C(=O)O
What was measured:
[1] = test system: macaque AVPR1a; assay: Intact cell 125I-OVTA competition binding, CHO cells expressing macaque AVPR1a; settings: competition with 125I-OVTA in intact CHO cells, 3 h on ice, ± Std. Error, n = 3
Description: (§1) Intact cell competition binding assays
(§2) Cells were washed four times with 100 µL ice-cold HGH-BSA, solubilized with 100 µL 0.2 N NaOH, and radioactivity was quantified with a gamma counter. Half-maximal inhibitory concentrations (IC50) were determined by plotting bound ^125I-OVTA vs. competitor concentration. IC50 values were then corrected using the Cheng-Prusoff equation with each receptor’s KD for ^125I-OVTA to produce Ki values for the competing ligands.
(§3) Binding affinities for ^125I-OVTA at each primate AVPR1a were calculated by subtracting nonspecific binding and then plotting bound ^125I-OVTA vs. free ^125I-OVTA. Because concentrations of ^125I-OVTA were not identical from experiment to experiment, technical replicates within each experiment (n = 3) were normalized and then corrected using the Cheng-Prusoff equation. […] Differences in Ca^2+ mobilization potency (EC50) and maximal response to OXT were determined by normalizing OXT-induced (Log M) Ca^2+ responses as a percentage of maximal (100%) AVP-induced Ca^2+ response. […] All best-fit data (Ki, EC50, and Ca^2+ maximal responses) were analyzed using the nonlinear least squares curve-fitting capabilities of GraphPad Prism.

[2] = test system: macaque AVPR1a; assay: Ca2+ mobilization assay, CHO cells expressing macaque AVPR1a; format: cell-based
Description: (§4) Ca^2+ mobilization assays
as §3, with “. […] . Binding” for “Binding”, “response. We averaged across technical replicates (n = 3) within each biological replicate and then averaged across the biological replicates (n = 3), normalized the data, and tested for significant differences of best-fit LogEC50 using one-way ANOVA analyses.” for “response.”, “.” for “All best-fit data (Ki, EC50, and Ca^2+ maximal responses) were analyzed using the nonlinear least squares curve-fitting capabilities of GraphPad Prism.”

[3] = test system: marmoset AVPR1a; assay: Intact cell 125I-OVTA competition binding, CHO cells expressing marmoset AVPR1a; settings: competition with 125I-OVTA in intact CHO cells, 3 h on ice, ± Std. Error, n = 5
Description: as §1, §2, §3

[4] = test system: marmoset AVPR1a; assay: Ca2+ mobilization assay, CHO cells expressing marmoset AVPR1a; format: cell-based
Description: as §4
as §3, with “. […] . Binding” for “Binding”, “response. We averaged across technical replicates (n = 3) within each biological replicate and then averaged across the biological replicates (n = 3), normalized the data, and tested for significant differences of best-fit LogEC50 using one-way ANOVA analyses.” for “response.”, “.” for “All best-fit data (Ki, EC50, and Ca^2+ maximal responses) were analyzed using the nonlinear least squares curve-fitting capabilities of GraphPad Prism.”

[5] = test system: untransfected CHO cells; assay: Ca2+ response in untransfected CHO cells; format: cell-based, Chinese hamster
[6] = target: T1, human AVPR1a (Homo sapiens, UniProt P37288); assay: Ca2+ mobilization assay, CHO cells expressing human AVPR1a; format: cell-based; settings: human AVPR1a in CHO cells; ± Std. Error, n = 6; read-out: Ca^2+ EC50
T1 sequence (P37288 whole entry): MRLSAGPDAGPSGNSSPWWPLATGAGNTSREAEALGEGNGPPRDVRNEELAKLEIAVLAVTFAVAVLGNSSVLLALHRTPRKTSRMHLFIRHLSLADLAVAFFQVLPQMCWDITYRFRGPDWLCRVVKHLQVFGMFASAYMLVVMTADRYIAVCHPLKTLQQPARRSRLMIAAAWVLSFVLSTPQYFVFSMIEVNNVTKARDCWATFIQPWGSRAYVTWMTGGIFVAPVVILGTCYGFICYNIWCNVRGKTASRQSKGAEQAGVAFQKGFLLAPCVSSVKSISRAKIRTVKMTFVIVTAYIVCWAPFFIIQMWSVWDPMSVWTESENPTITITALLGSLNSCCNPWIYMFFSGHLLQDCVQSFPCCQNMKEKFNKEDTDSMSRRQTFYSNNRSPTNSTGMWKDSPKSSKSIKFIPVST

[7] = target: human, marmoset, and macaque AVPR1a; assay: Saturation binding of 125I-OVTA, summary over the three primate AVPR1a; settings: range over the three species
Description: (§5) Intact cell saturation binding assays […] Cells were washed four times with 100 µL ice-cold HGH-BSA, solubilized with 100 µL 0.2 N NaOH, and radioactivity quantified with a gamma counter. We also counted aliquots of the used binding medium (i.e., free ^125I-OVTA) to quantify free radioligand CPM directly, eliminating any concerns about differential depletion of ligand due to differential receptor expression levels across species or time. […] Binding affinity for ^125I-OVTA was determined after correcting for non-specific binding by plotting specific bound/free vs. bound using a single-site binding equation (Graphpad Software Inc., La Jolla, CA).

[8] = target: T1, human AVPR1a; assay: Intact cell saturation binding of 125I-OVTA, human AVPR1a CHO clone
Description: as §5, with “μL” for “µL”, “CA). […] Binding affinities for ^125I-OVTA at each primate AVPR1a were calculated by subtracting nonspecific binding and then plotting bound ^125I-OVTA vs. free ^125I-OVTA. Because concentrations of ^125I-OVTA were not identical from experiment to experiment, technical replicates within each experiment (n = 3) were normalized and then corrected using the Cheng-Prusoff equation. […] We averaged across technical replicates (n = 3) within each biological replicate and then averaged across the biological replicates (n = 3), normalized the data, and tested for significant differences of best-fit LogEC50 using one-way ANOVA analyses.” for “CA).”

[9] = target: human, macaque, and marmoset OXTR; design: method as in Taylor et al., 2018; settings: range over the three species; ref Taylor et al., 2018; read-out: Affinity (Kd) of 125I-OVTA at human, macaque, and marmoset OXTR; cited from earlier work
[10] = test system: macaque AVPR1a; assay: Intact cell saturation binding of 125I-OVTA, macaque AVPR1a CHO clone; settings: intact CHO cells, 3 h on ice
Description: as §5, with “μL” for “µL”, “CA). […] Binding affinities for ^125I-OVTA at each primate AVPR1a were calculated by subtracting nonspecific binding and then plotting bound ^125I-OVTA vs. free ^125I-OVTA. Because concentrations of ^125I-OVTA were not identical from experiment to experiment, technical replicates within each experiment (n = 3) were normalized and then corrected using the Cheng-Prusoff equation. […] We averaged across technical replicates (n = 3) within each biological replicate and then averaged across the biological replicates (n = 3), normalized the data, and tested for significant differences of best-fit LogEC50 using one-way ANOVA analyses.” for “CA).”

[11] = test system: marmoset AVPR1a; assay: Intact cell saturation binding of 125I-OVTA, marmoset AVPR1a CHO clone; settings: intact CHO cells, 3 h on ice
Description: as §5, with “μL” for “µL”, “CA). […] Binding affinities for ^125I-OVTA at each primate AVPR1a were calculated by subtracting nonspecific binding and then plotting bound ^125I-OVTA vs. free ^125I-OVTA. Because concentrations of ^125I-OVTA were not identical from experiment to experiment, technical replicates within each experiment (n = 3) were normalized and then corrected using the Cheng-Prusoff equation. […] We averaged across technical replicates (n = 3) within each biological replicate and then averaged across the biological replicates (n = 3), normalized the data, and tested for significant differences of best-fit LogEC50 using one-way ANOVA analyses.” for “CA).”

Compound: N=C(N)NCCC[C@H](NC(=O)[C@@H]1CCCN1C(=O)[C@@H]1CSSC[C@H](N)C(=O)N[C@@H](Cc2ccc(O)cc2)C(=O)N[C@@H](Cc2ccccc2)C(=O)N[C@@H](CCC(N)=O)C(=O)N[C@@H](CC(N)=O)C(=O)N1)C(=O)NCC(N)=O [AVP, arginine vasopressin]
Ki [1]: 1200 pM and 1210 pM | EC50 ([2]; macaque AVPR1a in CHO cells, ± Std. Error, n = 3, read-out: Ca^2+ EC50): 300 pM and 310 pM | Maximal Ca^2+ response, comparison among ligands ([2]; macaque AVPR1a, F(2,6) = 0.23, p = 0.80): equal maximal Ca^2+ responses | Ki [3]: 900 pM and 860 pM | Ca^2+ response of AVP alone, % of the maximal Ca^2+ response ([4]; 10 nM AVP alone, marmoset AVPR1a): approximately 80% | EC50 ([4]; marmoset AVPR1a in CHO cells, ± Std. Error, n = 3, read-out: Ca^2+ EC50): 50 ± 50 pM | Ca^2+ response ([5]; AVP 100 mM to 0.1 nM (so in the source)): no Ca^2+ response

EC50 [6]: 36200 ± 250 pM
Compound: CC[C@H](C)[C@@H]1NC(=O)[C@H](Cc2ccc(O)cc2)NC(=O)[C@@H](N)CSSC[C@@H](C(=O)N2CCC[C@H]2C(=O)N2CCC[C@H]2C(=O)NCC(N)=O)NC(=O)[C@H](CC(N)=O)NC(=O)[C@H](CCC(N)=O)NC1=O [Pro^8-OXT] (H-CYIQNCPPG-NH2; disulfide 1-6)

Kd [7]: 331 to 1160 pM | Bmax ([8]; human AVPR1a CHO clone, maximal binding of 125I-OVTA): 6.21 fmol/well | Kd ([8]; human AVPR1a, saturation binding, intact CHO cells, 3 h on ice): 1160 pM
Compound: CC[C@H](C)[C@@H]1NC(=O)[C@H](Cc2ccc(OC)cc2)NC(=O)CC2(CCCCC2)SSC[C@@H](C(=O)N2CCC[C@H]2C(=O)N[C@@H](CCCN)C(=O)N[C@@H](Cc2ccc(O)c(I)c2)C(N)=O)NC(=O)[C@H](CC(N)=O)NC(=O)[C@H]([C@@H](C)O)NC1=O [^125I-OVTA, ^125I-ornithine vasotocin analog] (Y(Me)ITNCP[Orn][Tyr(3-I)]-NH2; linker N-5 via X1; C-terminus assumed)
Kd [9]: 161 to 481 pM | Kd [10]: 331 pM | Kd [11]: 944 pM

Compound: Lysophosphatidic acid [Lysophosphatidic acid (LPA)]
Ca^2+ response ([5]; 10 mM (so in the source)): do show a Ca^2+ response

Reference: article PMC6820730, “Leu^8 and Pro^8 oxytocin agonism differs across human, macaque, and marmoset vasopressin 1a receptors” (Scientific Reports, 2019)
